Patent US7271171B2, “Adenosine A3 receptor modulators” (King Pharmaceuticals Research and Development, Inc., priority 1998, dated 2007)
Like-named read-outs stand apart in the source and are kept apart here.

How the values were obtained:
rA2A adenosine receptor = target: T1, rA2A adenosine receptor (Rattus norvegicus, UniProt P30543); settings: values taken from Kim et al., J. Med. Chem. 1996; cited from earlier work
T1 construct: membranes of rat striatum (80-100 μmg of protein/assay); from tissue; host or cells: striatum of male Wistar rats
T1 sequence (P30543 whole entry): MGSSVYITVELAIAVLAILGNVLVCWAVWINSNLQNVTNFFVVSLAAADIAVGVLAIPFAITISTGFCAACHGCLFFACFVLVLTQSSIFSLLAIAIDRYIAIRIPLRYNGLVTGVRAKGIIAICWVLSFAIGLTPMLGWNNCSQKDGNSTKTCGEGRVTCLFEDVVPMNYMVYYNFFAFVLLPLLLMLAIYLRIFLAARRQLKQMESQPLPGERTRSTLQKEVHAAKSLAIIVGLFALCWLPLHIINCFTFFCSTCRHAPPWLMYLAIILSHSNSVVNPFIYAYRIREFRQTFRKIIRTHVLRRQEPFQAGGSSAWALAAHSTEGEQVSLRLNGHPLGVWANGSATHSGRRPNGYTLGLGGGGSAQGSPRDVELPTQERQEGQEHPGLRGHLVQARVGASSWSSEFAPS

rA1 adenosine receptor = target: T2, rA1 adenosine receptor (Rattus norvegicus, UniProt P25099); settings: values taken from Kim et al., J. Med. Chem. 1996; cited from earlier work
T2 construct: membranes of rat brain (150-200 μg- of protein/assay); from tissue; host or cells: whole brain of male Wistar rats
T2 sequence (P25099 1-326): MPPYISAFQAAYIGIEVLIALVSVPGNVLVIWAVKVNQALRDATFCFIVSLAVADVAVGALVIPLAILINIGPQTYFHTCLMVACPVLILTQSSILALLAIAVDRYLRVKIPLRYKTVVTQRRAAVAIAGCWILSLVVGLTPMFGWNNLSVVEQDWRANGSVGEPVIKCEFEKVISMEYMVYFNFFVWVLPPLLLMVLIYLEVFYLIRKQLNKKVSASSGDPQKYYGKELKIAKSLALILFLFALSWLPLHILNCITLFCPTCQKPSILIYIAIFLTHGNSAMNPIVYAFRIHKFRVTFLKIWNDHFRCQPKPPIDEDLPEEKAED

[1] = target: T3, A3 receptor in Jurkat cell membranes (Homo sapiens, UniProt P0DMS8)
T3 sequence (P0DMS8 1-318): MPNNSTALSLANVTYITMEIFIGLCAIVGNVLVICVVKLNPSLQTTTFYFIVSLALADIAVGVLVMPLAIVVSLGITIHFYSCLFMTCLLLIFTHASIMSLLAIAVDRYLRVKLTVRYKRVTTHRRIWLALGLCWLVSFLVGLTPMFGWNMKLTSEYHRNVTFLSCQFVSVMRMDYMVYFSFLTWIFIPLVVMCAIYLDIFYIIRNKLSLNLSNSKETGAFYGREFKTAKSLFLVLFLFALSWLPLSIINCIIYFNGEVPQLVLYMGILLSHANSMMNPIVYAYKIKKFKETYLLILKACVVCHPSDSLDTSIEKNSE

[2] = target: T4, human A3 receptors expressed in HEK 293 cells (Homo sapiens, UniProt P0DMS8); settings: saturation curve, FIG. 1, n=3
T4 sequence (P0DMS8 1-318): T3 sequence (P0DMS8 1-318)

SKN-Be2C cell membranes = assay: [125I]-ABMECA binding on tumor cell line membranes; settings: 0.5 nM radioligand
Method: (§1) A series of binding experiments were performed on various tumor cell lines, using 0.5 nM [^125I]-ABMECA, with unspecific binding determined in the presence of 50 μM R-PIA or 200 μM NECA, on cell membranes of the cell lines. Specific binding was determined by substracting unspecific binding from total binding. The cell lines were the HL 60, NB4, SKN-MC, SKN-Be2C, SKN-SH and JURKAT cell lines.

SKN-MC cell membranes = assay: [125I]-ABMECA binding on tumor cell line membranes; settings: 0.5 nM radioligand
Method: as §1

SKN-SH cell membranes = assay: [125I]-ABMECA binding on tumor cell line membranes; settings: 0.5 nM radioligand
Method: as §1

NB4 cell membranes = assay: [125I]-ABMECA binding on tumor cell line membranes; settings: NB4, 0.5 nM radioligand
Method: as §1

JURKAT cell membranes = assay: [125I]-ABMECA binding on tumor cell line membranes; set-up: species or system human; settings: 0.5 nM radioligand
Method: as §1

HL 60 cell membranes = assay: [125I]-ABMECA binding on tumor cell line membranes; set-up: species or system human; settings: HL 60, 0.5 nM radioligand
Method: as §1

Structure (SMILES): O=C(Cc1ccccc1)Nc1nc2ccc(Cl)cc2c2nc(-c3ccco3)nn12 [MRS 1220]
- Ki (rA2A adenosine receptor): 52 ± 8.8 nM
- Ki (rA1 adenosine receptor): 305 ± 51 nM

Structure (SMILES): CNC(=O)[C@H]1O[C@@H](n2cnc3c(NCc4ccc(N)c([125I])c4)ncnc32)[C@H](O)[C@@H]1O [[^125I]AB-MECA, [^125I]N^6-(4-amino-3-iodobenzyl)adenosine-5′N-methyluronamide]
- Bmax (fmol/mg protein) / density of A3 receptor detected ([1]; FIG. 3): approximately 300 fmol/mg protein
- Bmax (fmol/mg protein) / density of A3 receptor detected ([1]; FIG. 3, listed as [^125I]-ABMECA): 290 fmol/mg protein
- Bmax value [2]: 62±1 fmol/mg protein
- Percent Specific Binding (SKN-Be2C cell membranes): 24%
- Specific Binding (cpm) (SKN-Be2C cell membranes): 1415 cpm
- Percent Specific Binding (SKN-MC cell membranes): 17%
- Specific Binding (cpm) (SKN-MC cell membranes): 1308 cpm
- Percent Specific Binding (SKN-SH cell membranes): 3%
- Specific Binding (cpm) (SKN-SH cell membranes): 91 cpm
- Percent Specific Binding (NB4 cell membranes): 19%
- Specific Binding (cpm) (NB4 cell membranes): 637 cpm
- Percent Specific Binding (JURKAT cell membranes): 38%
- Specific Binding (cpm) (JURKAT cell membranes): 2846 cpm
- Percent Specific Binding (HL 60 cell membranes): 20%
- Specific Binding (cpm) (HL 60 cell membranes): 693 cpm
